From a melting point compilation (Tetko et al.; mined from patent text by program, amines drawn as free bases though some values may be those of a salt)

| melting point [°C] | Compound |
| --- | --- |
| 180 | CCOc1ccc2c(c1)C(C)(c1ccccc1O)C(=O)N2S(=O)(=O)c1ccc(C(=O)NC(C)(C)C)cc1 (stereo not given) |
| 87 to 87.5 | Nc1ccccc1OC1CCCC1 |
| 107 | COCc1cc(OCc2ccccc2)c2nc(C)c(C)n2c1 |
| 179 to 181 | CC(C)n1nc(C(=O)NCC2CCN(CCc3ccc(C(=O)O)cc3)CC2)c2ccccc21 |
| 164 to 169 | CN1CCN(c2cc(Cl)cc3c2c(=O)n(Cc2ccccc2[N+](=O)[O-])c(=O)n3Cc2ccccc2)CC1 |
| 266 to 268 | O=C(O)c1ccc(=O)n(CCNC(=O)c2ccccn2)c1 |
| 88 | COc1ccc(SC(C)(Cc2ccccc2)C(=O)NO)cc1 (stereo not given) |
| 136 to 137 | CC(C)(C)OC(=O)CCN1CCN(CC2CN(c3ccc(C(=N)NC(=O)c4ccccc4)cc3)C(=O)O2)CC1 (stereo not given) |
| 109 to 112 | O=S(=O)(c1ccccc1)c1nccc2c1CCCC2 |
| 99 | O=S(=O)(c1ccc(Cl)cc1)N1CCCC1c1cccc(Cl)c1 (racemic) |
| > 300 | CN1CCc2c(C3=CC(=O)CCC3)c(F)cc3c(=O)c(C(=O)O)cn1c23 |
| 139 to 142 | Cn1c(I)nc2c(C(F)(F)F)nc(NCCc3ccccc3)nc21 |
| 76 to 77 | Cc1cc(C(=O)Oc2ccccc2)c(O)c2ccccc12 |
| 80 to 81 | CCc1c(-c2ccccc2)nn(C)c1-c1ccccc1 |
| 112 | CCOC(=O)c1cc2c(nc1C)C(=Cc1ccc(OC(C)=O)cc1)CCC2 |
| 105 to 108 | O=C(O)CCCCCc1ccc2ccccc2n1 |
| 108 to 110 | CCC1(CBr)Cc2cc(OC)c3c(c2C(c2ccccc2)=N1)CC(CC)(CC)O3 (stereo not given) |
| 246 to 247 | N#Cc1cccc(Cn2cnc(C(N)=O)c2N)c1 |
| 174 to 176 | CNC(=O)c1ccc2c(c1)CCOC2CCN1CCN(c2ccc(OC)cc2)CC1 (stereo not given) |
| 206 | N#Cc1ccccc1NC1=CC(=O)CCC1 |
| 70 | Nc1cc(C(F)(F)F)ccc1NC1CCCCC1 |

| melting point [°C] | Compound |
| --- | --- |
| 168 | CC(C)C(NC(=O)c1ccc(-c2ccccc2)cc1)C(=O)O (stereo not given) |
| 227 to 230 | CC1(C)COC(c2ccc(N)cc2)=N1 |
| 225 | O=C(O)Cc1c(C(=O)c2cc3c(cn2)CCCC3)[nH]c2cc(Cl)ccc12 |
| 174 to 175 | CC1(CCSc2nc3ccccc3o2)Cn2cc([N+](=O)[O-])nc2O1 (stereo not given) |
| 130 to 131 | N#CCC12CC(c3ccccc31)c1ccccc12 |
| > 220 | Cc1cc(=O)n(-c2ccc(Cl)cc2F)c(=O)[nH]1 |
| 182 | CCOC(=O)N1CCC(=C2c3ccccc3CCn3c(C(=O)O)cnc32)CC1 |
| 120 to 122 | Clc1ccc2c(C=Cc3ccccc3)ccnc2c1 |
| 192 to 193 | Cc1nc2c(N)nc3ccccc3c2n1CCCCNC(=O)C1CCCCC1 |
| 98 to 99 | Cc1oc(-c2ccccc2)nc1COc1cncc(CCl)c1 |
| 152 to 154 | O=Cc1c[nH]cc1-c1cccc(Cl)c1Cl |
| 145 to 150 | Cc1ccnc(CSc2nc3ccccc3c(=O)n2-c2ccccc2)c1 |
| 125 to 128 | Cc1cccc2c1C(=O)CC2=O |
| 152 to 153 | O=C(c1ccccc1)c1cc2ccnc(Cl)c2[nH]1 |
| 150 to 152 | O=C(O)c1ccc(OCc2ccc(Cl)cc2)cc1OCc1ccccc1 |
| 99 to 101 | CS(=O)(=O)c1ccc(C(CC2CCCC2)C(=O)Nc2ccccn2)cc1Br (stereo not given) |
| 113 to 115 | Brc1ccc(O[C@H]2CCNC[C@H]2c2ccccc2)cc1 (relative stereo) |
| 207 to 210 | Cc1nc(C(=O)NC23CC4CC(CC(C4)C2)C3)cn1-c1ccccc1 |
| 226 to 227 | O=C(NCc1cccc(-c2nc(=O)c3ccccc3s2)n1)C(F)(F)F |
| 212 to 213 | COc1cc(C(=O)c2nc3ccccc3[nH]2)cc([N+](=O)[O-])c1OC |
| > 240 | O=C(Nc1ccc(C(=O)O)cc1)NN1CC=CCC1 |

Further lines, the molecule ahead of its results:

| Compound | melting point [°C] |
| --- | --- |
| CN(C(=O)c1ccc2c(c1)nc(NC(=O)c1cccs1)n2CCCC(N)=O)C1CCCCC1 | 112 to 115 |
| CN(C)Cc1ccc(NC(=O)Nc2ccc(Oc3cc(Cl)ncn3)cc2)cc1C(F)(F)F | 98 to 105 |
| CC1=C(C(=O)O)[C@H](c2cccc([N+](=O)[O-])c2)C(C(=O)OCOC(=O)C(C)(C)C)=C(C)N1 | 146 to 148 |
| CC(C)(S)C(O)(Cn1cncn1)c1ccc(F)cc1F (single isomer, unassigned; (-)) | 105 |
| Cc1ccc2nc(-c3ccccc3)cc(OCc3ccccc3)c2c1 | 139 |
| Cn1nnnc1SCCSc1ccccn1 | 77 to 79.5 |
| O=S1(=O)c2cccc3cccc(c23)N1CCCCN1CC=C(c2ccc(Cl)cc2)CC1 | 12 |
| COc1c2ccccc2c(-c2c(-c3c4ccccc4c(OC)c4ccccc34)c2=O)c2ccccc12 | 265 to 270 |
| Cn1c(-c2ccc(C=Cc3ccc(-c4ccccc4)cc3)cc2)cc2ccccc21 | 254 |
| CCOC(=O)/C(C)=C(/C)c1cccc(OCc2nc(-c3ccc(C(F)(F)F)cc3)oc2C)c1 | 115 to 116 |
| OC(CCCn1ccnc1)c1ccccc1 (stereo not given) | 205 to 207 |
| CCCn1nc(C(C)C)c(C(=O)O)c1Cc1ccc(-c2ccccc2C(=O)O)cc1 | 226 to 230 |
| NS(=O)(=O)c1cccc(-c2noc(-c3cnc4ccc(-c5ccc(C(F)(F)F)cc5)cn34)n2)c1 | 288 |
| CCN1CC(SCC2CC2)(C(F)(F)F)c2cc(Cl)ccc2NC1=O (stereo not given) | 152 to 156 |
| Cc1ccc2c(c1)C(CCCCN1CCN(c3ccc(Cl)cc3)CC1)C(=O)N2 (stereo not given) | 159 to 161 |
| CC(C)=CCCC(C)=CCCC(C)=CCCC(C)=CC=CC(C)=CC(=O)O | 45.5 to 46.5 |
| O=[N+]([O-])C1NC=CN1c1ccncc1 (stereo not given) | 234 |
| CSc1c(C)[nH]c2ccc([N+](=O)[O-])cc12 | 198 |
| CCC(=O)OC1=C(CCCCCCCCC[Si](C)(C)C)C(=O)c2ccccc2C1=O | 41 to 43 |
| C=CCc1cc2c(c(CC=C)c1O)OCC(=O)N2CC=C | 91 to 92 |

| Compound | melting point [°C] |
| --- | --- |
| Cc1ccc(S(=O)(=O)Oc2ccc(S(=O)(=O)c3ccoc3C(C)C)cc2)cc1 | 94 |
| CCCCCCCCCCCCCCCCOC(=O)c1cc(C(=O)OCCCCCCCCCCCCCCCC)cc(S(=O)O)c1 | 63 to 65 |
| Cn1nc(C(F)(F)F)c(CS(=O)(=O)C2=NOC(C)(C)C2)c1Cl | 115 to 116 |
| C=C(C(=O)O)c1ccc(OC)c(OC)c1 | 128 |
| CN1CCN(c2ccnc3sc(C(N)=O)c(N)c23)CC1 | 260 to 263 |
| CCCCONC(=O)c1nc(-c2ccc(Cl)c(OC)c2F)cc(N)c1Cl | 130 to 132 |
| CC(C)OC(=O)CCc1ccc(-n2ccn(-c3ccc(C(=N)N)cc3)c2=O)cc1 | > 250 |
| COC(=O)c1[nH]c2c(C)ccc(C)c2c1C(N)=O | 201 to 202 |
| CCCS(=O)(=O)C(c1cnc(C(N)=O)cc1C)c1c(F)ccc(F)c1F (stereo not given) | 202 to 204 |
| O=C1c2cc(F)cc(F)c2OC[C@H]1NC(=O)C(F)(F)F | 167 to 168 |
| CCOC(=O)c1c(N2CCN(C(=O)c3cccs3)CC2)c2cnccc2[nH]c1=O | 231 |
| O=C(O)c1cc(=O)c2cc(C(F)(F)F)ccc2[nH]1 | 287 to 289 |
| CCc1ccc(Nc2c(-c3nnc(CC)o3)ccc(F)c2F)c(F)c1 | 82 to 83 |
| Cc1nc2c3c(ccc2n1C)[C@@H](OCCF)[C@H](O)[C@@H](c1ccccc1)O3 | 226 |
| C[C@@H](n1cnc2cc(N3CCN(c4ccc(Cl)cc4)CC3)c(F)cc2c1=O)[C@](O)(Cn1cncn1)c1ccc(F)cc1F | 130 to 133 |
| C=C1CCCC2CCC3C(CCC4(C)C3C(C=O)C35OCCOC43OCCO5)C12C (stereo not given) | 192 |
| CNC1=NS(=O)N=C1NCCSCc1ccc(CN(C)C)o1 (stereo not given) | 86 to 92 |
| CCCCc1nc2ccccn2c(=O)c1-c1ccc(OS(=O)(=O)C(F)(F)F)cc1 | 106 to 108 |
| CC(C)C(=O)NCCOc1ccc([N+](=O)[O-])cc1 | 102 to 103 |
| CNC1=Nc2ccc(Br)cc2C(c2ccccc2)=NC1 | 234 to 235 |

| Compound | melting point [°C] |
| --- | --- |
| O=C(O)CC[C@H](NC(=O)Oc1ccc(N(CCCl)CCCl)cc1)C(=O)O | 87 to 89 |
| CSCc1cccc(CNC(=O)c2nc3scc(COCc4ccc(C(=O)O)cc4)c3c(=O)[nH]2)c1 | 222 to 223 |
| COc1ccc2oc3ccc(Br)cc3c2c1C(=O)Nc1ccncc1 | 270 to 273 |
| CC(C)c1nc(CCO)n(C)c1Sc1cc(Cl)cc(Cl)c1 | 177 to 178 |
| CC1(CO)COC(Cn2ccnc2)(c2ccc(Cl)cc2Cl)OC1 (stereo not given) | 174 to 175 |
| CC(=O)Nc1cc([N+](=O)[O-])c(F)cc1Cl | 158 to 160 |
| CN1c2ccccc2C(c2ccccc2Br)=Nc2cccnc21 | 139 to 140 |
| CC(C)Cn1nnc(-c2cccc(-c3ccnc4c(C(=O)c5cccs5)cnn34)c2)n1 | 141 |
| Cc1ccc(-n2c(-c3sc(Nc4ccc(Cl)cc4)nc3-c3ccccc3)nc3ccccc3c2=O)cc1 | > 275 |
| Cn1cnc2nc(-c3ccc(F)cc3)nn2c1=S | > 300 |
| CCOP(=O)(OCC)C(C)CNC(=O)CCl (stereo not given) | 93 to 95 |
| CCCC(CCC)N(C[C@H]1CC[C@H](CN(C(=O)Nc2ccc(N(C)C)cc2)C(CCC)CCC)CC1)C(=O)Nc1ccc(N(C)C)cc1 | 173 to 176 |
| CC1=NC(NC(=O)Nc2cccc(C)c2)C(=O)N(CC(=O)C2CCCCCCC2)c2c(C)cccc21 (stereo not given) | 163 to 164 |
| O=S(=O)(c1cccc(C(F)(F)F)c1)c1cc(Br)nc(Br)c1 | 156 to 158 |
| COc1ccc(-c2c(C(=O)O)n(Cc3cc4c(cc3Cl)OCO4)c3ccccc23)cc1 | 189 to 190 |
| Nc1nc2cc(Cl)c(Cl)cc2nc1-c1ccco1 | 222 to 223 |
| Cc1cnc(-c2ccc(Br)cc2)nc1-c1ccc(Br)cc1 | 136 to 137 |
| CCOCC1Cc2cc(S(=O)(=O)N(C)C)c(Cl)c(Cl)c2O1 (stereo not given) | 91 to 92 |
